Values of other authors, collected in patent publication US11234954B2, “Low-dose doxepin for treatment of sleep disorders in elderly patients” (Pernix Sleep, Inc., priority 2006, dated 2022).

Conditions: major active metabolite of doxepin; cited from earlier work

CNCC/C=C1\c2ccccc2COc2ccccc21 [desmethyldoxepin, Desmethyldoxepin]
half-life: 51 h
